These results are taken from patent publication US20220088031A1, “METHODS AND COMPOSITIONS FOR TREATING RESISTANT AND RECURRENT FORMS OF CANCER” (Health Research, Inc., priority 2019, published 2022).

What all share (assay type): cell-based, human
Assay [1] concerns E006AA cells. Description: Caspase-3 (DEVDase) activity assay. How it is done:
Caspase-3 (DEVDase) activity assay: PCa cell lysates prepared in NP40 lysis buffer were incubated with DEVD-AFC (caspase-3 substrate) at 37° C. for 90 min in caspase activity assay buffer (50 mM HEPES pH 7.4, 150 mM NaCl, 1% CHAPS, 1 mM EDTA, 1 mM DTT, 50% glycerol). Fluorescence intensity was detected using a Synergy microplate reader at excitation and emission wavelengths of 400 nm and 508 nm, respectively. Arbitrary fluorescence units were normalized with protein content of cell lysates and represented as fold change compared to control groups.

The subject of assay [2] is E006AA cells. Description: Immunoblot analysis of CC, cleaved PARP and cleaved caspase-3 in whole cell lysates. The following applies: for CC expression: combined treatment with DOC (10 nM, 24 hrs), c-Myc I 75 μM, NF-κB I 50 μM, AKT Act 5 μM. How it is done: (§1) Immunoblotting: Immunoblotting was performed as described previously. Protein lysates were prepared using a lysis in NP-40 buffer (50 mM Tris-HCl pH 7.4, 150 mM NaCl, 1 mM EDTA, 1 mM EGTA, 1% NP-40) supplemented with protease and phosphatase inhibitor cocktail. Protein content was quantified using a micro BCA protein estimation kit (Thermo Scientific, Waltham, Mass.; Cat #23235). Protein samples were resolved on 4-20% Criterion gels, transferred on nitrocellulose membranes (BioRad, Hercules, Calif.) and subjected to immunoblotting. Membranes were blocked in 5% fat free dry milk (Blotto, Santa Cruz, Dallas, Tex.; Cat #sc-2324) prepared in PBS-T (Tween-20) and incubated overnight in primary antibodies (1:1000 dilution) at 4° C. with continuous shaking. After washing with PBS-T, membranes were incubated in HRP conjugated anti-mouse or anti-rabbit secondary antibody at room temperature for 1 hr. After washing with PBS-T, proteins were detected using Clarity chemiluminescent reagent (BioRad, Hercules, Calif.; Cat #1705061) and X-Ray films (ASI, Fort Lauderdale, Fla.; Cat #XR1570). Membranes were stripped using stripping buffer and probed with HRP conjugated beta-actin antibody to ensure equal loading of proteins.
A general note: In western blotting, separated proteins are transferred to a membrane and probed.

Assay [3] deals with Nrf1 nuclear translocation in E006AA cells. Description: Immunoblot analysis of Nrf1 in cytosolic and nuclear fractions. How it is done: as §1, with “Subcellular fractionation for the preparation of cytosolic and nuclear fractions: Cells were seeded on 10 cm cell culture plates for treatment. Cells were harvested via gently scraping. Cells were collected using centrifugation and washed twice with ice cold PBS. Cells were resuspended in cytosolic buffer (10 mM HEPES, pH 7.4; 10 mM KCl; 0.1 mM EDTA; 0.1 mM EGTA) supplemented with freshly added 1× protease inhibitor cocktail and 1 mM DTT. Cells were incubated in cytosolic buffer for 15 min in ice and 10% NP40 was added (12.4 μl 10% NP40 per 200 μl volume of cytosolic buffer) followed by vigorous vortexing for 45 sec. Cell homogenates were centrifuged at 14000 rpm for 2 min. The supernatant was collected in new tubes and stored as the cytosolic fraction. The nuclear pellet was washed 3 times with cytosolic buffer and lysed in nuclear lysis buffer (10 mM HEPES, 500 mM NaCl, 1 mM EDTA, 1 mM EGTA, 1% NP40) to prepare nuclear extract. Immunoblotting:” for “Immunoblotting:”

For assay [4], the system named is E006AA cells. Description: Immunoblot analysis of CC in cytosolic and mitochondrial fractions. The following applies: in combination with DOC (24 hrs). How it is done: Subcellular fractionation for the preparation of cytosolic and mitochondrial fractions: Cells were seeded on 15 cm cell culture plates followed by treatment with various compounds for the preparation of cytosolic and mitochondrial fractions as described. Cells were harvested via gentle scraping, washed twice with ice cold 1×PBS, and resuspended in homogenization buffer (20 mM HEPES, pH 7.4; 10 mM KCl; 1.5 mM MgCl2; 1 mM EDTA; 1 mM EGTA; 250 mM sucrose) supplemented with freshly added 1× protease inhibitor cocktail and 1 mM DTT. Cells were incubated in homogenization buffer for 30 min in ice and homogenized using a dounce homogenizer (˜25 strokes using pestle A). Cell homogenates were pre-cleared of unbroken cells and debris using centrifugation at 1000 g for 10 min. The supernatant was collected in new tubes and centrifuged at 12000 rpm for 20 min to obtain a mitochondrial pellet, which was washed 3 times with homogenization buffer and lysed in NP40 buffer, and stored as the mitochondrial fraction. The supernatant was ultra-centrifuged to obtain purified cytosol.
as §1

Assay [5] relates to p-Drp1^S616 in E006AA cells. Description: Immunoblot analysis of p-Drp1^S616 and Drp1. To be noted: AA PCa cells; c-Myc I 75 μM, NF-κB I 50 μM, AKT Act 5 μM. How it is done:
as §1

Setting [6] is: combined treatment with DOC (24 hrs).

Entries after “also recorded” stand apart in the source; their conditions may differ.

As for `Cc1ccc(NCCCc2ccccc2)c(N)c1` [NF-κB inhibitor, JSH-23], the caspase-3 activation entry is “only a modest increase” with E006AA cells [1] (agent alone) and “increased caspase-3 activation” in the assay with E006AA cells [1] (setting [6]). In addition, the PARP cleavage result with E006AA cells [2] (agent alone) is recorded as “only a modest increase”; in the assay on E006AA cells [2] (setting [6]), “PARP cleavage”. The CC expression result with E006AA cells [2] was “Increased CC expression”. In addition, the “translocation of Nrf1 to nucleus” value in assay [3] (agent alone) and in assay [3] (combined with DOC (24 hrs)) was “Enhanced translocation of Nrf1 to nucleus” each time. Also, in the assay with E006AA cells [4], the CC release entry is “resulted in CC release”. Also, in assay [5], the “levels of p-Drp1^S616” value is reported as “increased the levels of p-Drp1^S616”.
As for `CCc1ccc(/C=C2/SC(=S)NC2=O)cc1` [c-Myc inhibitor, 10058-F4], the caspase-3 activation entry in the assay on E006AA cells [1] (agent alone) is listed as “only a modest increase”; in the assay with E006AA cells [1] (setting [6]), “increased caspase-3 activation”. The PARP cleavage result with E006AA cells [2] (agent alone) is given as “only a modest increase”; with E006AA cells [2] (setting [6]), “PARP cleavage”. In addition, the CC expression result with E006AA cells [2] is “Increased CC expression”. Moreover, the “translocation of Nrf1 to nucleus” value in assay [3] (agent alone) and in assay [3] (combined with DOC (24 hrs)) was “Enhanced translocation of Nrf1 to nucleus” throughout. For the same compound, the CC release entry in the assay on E006AA cells [4] is “CC release only in combination treatment; also recorded: resulted in CC release”. For the same compound, the “levels of p-Drp1^S616” value in assay [5] is on record as “increased the levels of p-Drp1^S616”.
With “bisperoxovanadium 5-hydroxipyridine [AKT activator]”, the caspase-3 activation result in the assay on E006AA cells [1] (agent alone) is “only a modest increase”; in the assay on E006AA cells [1] (setting [6]) it was “increased caspase-3 activation”. Moreover, the PARP cleavage result in the assay on E006AA cells [2] (agent alone) is given as “only a modest increase”; with E006AA cells [2] (setting [6]), “PARP cleavage”. Besides, in the assay with E006AA cells [2], the CC expression entry was “Increased CC expression”. In addition, the “translocation of Nrf1 to nucleus” value in assay [3] (agent alone) and in assay [3] (combined with DOC (24 hrs)) was “Enhanced translocation of Nrf1 to nucleus” in each case. In the assay with E006AA cells [4], the CC release result was “CC release only in combination treatment; also recorded: resulted in CC release”. In assay [5], the “levels of p-Drp1^S616” value is recorded as “increased the levels of p-Drp1^S616”.
